Several values for one entry are separate records, joined by “and”; a condition that tells them apart may be missing. Identical values can stand only once. Toxic doses and inconclusive results are not listed. No stated cut-off is given here; in the data, active means T/C of 150% or more; inactive means T/C below 125%.
System: L1210 leukemia ip in BDF1 mice, survival T/C
Assay: NCI In Vivo Anticancer Drug Screen. Data for tumor model L1210 Leukemia (intraperitoneal) in B6D2F1 (BDF1) mice
Conditions: endpoint: mean survival time, higher = longer survival
Summary of the method: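 Tumor was transplanted into mice, which were then dosed with test compound or vehicle alone. Survival was recorded for each group, and the treated figure was expressed relative to the control figure.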

[1] = dose: 75.0 mg/kg/injection, schedule: Q01DX001 (ip), vehicle: acetone
[2] = dose: 200.0 mg/kg/injection, schedule: Q01DX001 (ip), vehicle: saline
[3] = dose: 400.0 mg/kg/injection, schedule: Q01DX001 (ip), vehicle: saline
[4] = dose: 100.0 mg/kg/injection, schedule: Q01DX001 (ip), vehicle: saline
[5] = dose: 100.0 mg/kg/injection, schedule: Q01DX009 (ip), vehicle: saline
[6] = dose: 200.0 mg/kg/injection, schedule: Q01DX009 (ip), vehicle: saline
[7] = dose: 400.0 mg/kg/injection, schedule: Q01DX009 (ip), vehicle: saline
[8] = dose: 100.0 mg/kg/injection, schedule: Q04DX003 (ip), vehicle: saline with Tween-80
[9] = dose: 200.0 mg/kg/injection, schedule: Q04DX003 (ip), vehicle: saline with Tween-80
[10] = dose: 100.0 mg/kg/injection, schedule: Q01DX001 (ip), vehicle: other
[11] = dose: 400.0 mg/kg/injection, schedule: Q01DX001 (ip), vehicle: other
[12] = dose: 50.0 mg/kg/injection, schedule: Q01DX009 (ip), vehicle: Klucel (hydroxypropylcellulose) (HPC)
[13] = dose: 100.0 mg/kg/injection, schedule: Q01DX009 (ip), vehicle: Klucel (hydroxypropylcellulose) (HPC)
[14] = dose: 100.0 mg/kg/injection, schedule: Q04DX003 (ip), vehicle: Klucel (hydroxypropylcellulose) (HPC)
[15] = dose: 200.0 mg/kg/injection, schedule: Q04DX003 (ip), vehicle: Klucel (hydroxypropylcellulose) (HPC)
[16] = dose: 200.0 mg/kg/injection, schedule: Q01DX009 (ip), vehicle: Klucel (hydroxypropylcellulose) (HPC)
[17] = dose: 400.0 mg/kg/injection, schedule: Q01DX009 (ip), vehicle: Klucel (hydroxypropylcellulose) (HPC)
[18] = dose: 400.0 mg/kg/injection, schedule: Q04DX003 (ip), vehicle: Klucel (hydroxypropylcellulose) (HPC)

Measured: T/C

Clc1cc(Cl)nc(N2CC2)n1
inactive: dose: 0.02 mg/kg/injection, schedule: Q01DX Z (ip), vehicle: methylcellulose (MC) 91 % of control | dose: 6.25 mg/kg/injection, schedule: Q01DX009 (ip), vehicle: acetone 108 % of control | dose: 12.5 mg/kg/injection, schedule: Q01DX009 (ip), vehicle: acetone 111 % of control | dose: 12.5 mg/kg/injection, schedule: Q04DX003 (ip), vehicle: saline 98 % of control | dose: 25.0 mg/kg/injection, schedule: Q04DX003 (ip), vehicle: saline 92 % of control

Nc1ncnc2c1ncn2C1OC(CO)C2OP(=O)(O)OC21 (stereo unspecified)
inactive: dose: 100.0 mg/kg/injection, schedule: Q01DX005 (ip), vehicle: saline 95 % of control | dose: 200.0 mg/kg/injection, schedule: Q01DX005 (ip), vehicle: saline 118 % of control

CCNS(=O)(=O)c1cccc(C(N)=S)c1
inactive: dose: 100.0 mg/kg/injection, schedule: Q01DX001 (ip), vehicle: gum acacia 103 % of control | dose: 200.0 mg/kg/injection, schedule: Q01DX001 (ip), vehicle: gum acacia 105 % of control | dose: 400.0 mg/kg/injection, schedule: Q01DX001 (ip), vehicle: gum acacia 106 % of control

CCCCCCCCCCCCCCCCCCC1=NCCN1
inactive: dose: 2.34 mg/kg/injection, schedule: Q01DX009 (ip), vehicle: saline 101 % of control | dose: 4.68 mg/kg/injection, schedule: Q01DX009 (ip), vehicle: saline 96 % of control | dose: 9.37 mg/kg/injection, schedule: Q01DX009 (ip), vehicle: saline 86 % of control | dose: 18.75 mg/kg/injection, schedule: Q04DX003 (ip), vehicle: saline 90 % of control | [1] 97 % of control

O=C(OC1CCC/C=C\CCCC1)c1ccc(Cl)cc1 (stereo unspecified)
inactive: [2] 104 % of control | [3] 98 % of control

O=S(=O)(Cc1ccccc1)C(=C(N1CCCCC1)N1CCCCC1)S(=O)(=O)Cc1ccccc1
inactive: [4] 102 % of control | [5] 94 % of control | [2] 104 % of control | [6] 93 % of control | [3] 98 % of control | [7] 96 % of control

Nc1cccc(OCCCCc2ccccc2)c1
inactive: [8] 101 % of control | [9] 95 % of control

O=C1Cc2ccccc2CNN1
inactive: [10] 90 % of control | [11] 102 % of control

CC(=O)NCCSC(=O)C(=O)SCCNC(C)=O
inactive: dose: 25.0 mg/kg/injection, schedule: Q01DX001 (ip), vehicle: saline 115 % of control | dose: 25.0 mg/kg/injection, schedule: Q01DX Z (ip), vehicle: saline 102 % of control | dose: 50.0 mg/kg/injection, schedule: Q01DX001 (ip), vehicle: saline 102 % of control | dose: 50.0 mg/kg/injection, schedule: Q01DX Z (ip), vehicle: saline 96 % of control | [4] 102 % of control | dose: 100.0 mg/kg/injection, schedule: Q01DX Z (ip), vehicle: saline 96 % of control | [2] 94 % of control and 96 % of control and 104 % of control | dose: 450.0 mg/kg/injection, schedule: Q01DX001 (ip), vehicle: saline 86 % of control

O=c1ccc(=O)c2c(=O)c3ccccc3c(=O)c1=2
inactive: [12] 97 % of control | [13] 95 % of control | [14] 101 % of control | [15] 103 % of control

CN(C)/C=N/c1nccs1
inactive: [4] 104 % of control | [2] 107 % of control | [3] 107 % of control

Nc1[nH]c(=O)[nH]c(=O)c1Br
inactive: [13] 97 % of control | [14] 100 % of control | [16] 103 % of control | [15] 100 % of control | [17] 101 % of control | [18] 97 % of control

Nc1nc2c(=O)[nH]c(=O)[nH]c2n1C1OC(CO)C(O)C1O (stereo unspecified)
inactive: [4] 102 % of control | [2] 111 % of control

CCOC(=O)C(C)SCC(CSC(C)C(=O)OCC)(CSC(C)C(=O)OCC)CSC(C)C(=O)OCC (stereo unspecified)
inactive: dose: 100.0 mg/kg/injection, schedule: Q01DX001 (ip), vehicle: saline with Tween-80 104 % of control | dose: 200.0 mg/kg/injection, schedule: Q01DX001 (ip), vehicle: saline with Tween-80 107 % of control | dose: 400.0 mg/kg/injection, schedule: Q01DX001 (ip), vehicle: saline with Tween-80 104 % of control

O=S(O)c1ccc(Cl)cc1
inactive: [5] 101 % of control | [6] 100 % of control | [7] 98 % of control

Nc1c(Cl)c(Cl)nc(C(=O)O)c1Cl
inactive: dose: 6.25 mg/kg/injection, schedule: Q01DX009 (ip), vehicle: Klucel (hydroxypropylcellulose) (HPC) 98 % of control | dose: 12.5 mg/kg/injection, schedule: Q01DX009 (ip), vehicle: Klucel (hydroxypropylcellulose) (HPC) 98 % of control | [12] 100 % of control | [13] 95 % of control | [16] 97 % of control

CCCCCCCCCCCCCCCCCC(=O)N/N=C/c1cccc([N+](=O)[O-])c1
inactive: [13] 94 % of control | [16] 96 % of control | [17] 88 % of control

O=C(OC(c1ccccc1)(C(F)(F)F)C(F)(F)F)c1ccccc1Sc1ccccc1
inactive: dose: 100.0 mg/kg/injection, schedule: Q01DX009 (ip), vehicle: saline with Tween-80 95 % of control | dose: 200.0 mg/kg/injection, schedule: Q01DX009 (ip), vehicle: saline with Tween-80 101 % of control | dose: 400.0 mg/kg/injection, schedule: Q01DX009 (ip), vehicle: saline with Tween-80 98 % of control

CCCCC(/C=N\NC(=O)c1ccc[n+](C)c1)CC (stereo unspecified)
inactive: dose: 50.0 mg/kg/injection, schedule: Q01DX009 (ip), vehicle: saline 103 % of control | [5] 100 % of control

CC1(C)C(C#N)C(=O)N(Cc2ccccc2)C(=O)C1C#N (stereo unspecified)
inactive: [8] 101 % of control | [9] 93 % of control

NC(=O)C#CC(N)=O
inactive: [13] 97 % of control | [14] 95 % of control | [16] 109 % of control | [15] 97 % of control | [17] 92 % of control | [18] 92 % of control

O=C1CCN(CCN2CCC(=O)NC2=S)C(=S)N1
inactive: dose: 100.0 mg/kg/injection, schedule: Q04DX002 (ip), vehicle: gum acacia 94 % of control | dose: 200.0 mg/kg/injection, schedule: Q04DX002 (ip), vehicle: gum acacia 91 % of control | dose: 400.0 mg/kg/injection, schedule: Q04DX002 (ip), vehicle: gum acacia 97 % of control

CC1(C)CCC2(C(=O)O)CCC3=C(C(CCl)CC4C3(C)CCC3C4(C)CC(O)C(O)C3(C)C(=O)O)C2C1 (stereo unspecified)
inactive: dose: 25.0 mg/kg/injection, schedule: Q01DX Z (ip), vehicle: carboxymethylcellulose (CMC) 96 % of control | dose: 50.0 mg/kg/injection, schedule: Q01DX Z (ip), vehicle: carboxymethylcellulose (CMC) 91 % of control | dose: 75.0 mg/kg/injection, schedule: Q01DX Z (ip), vehicle: carboxymethylcellulose (CMC) 97 % of control | dose: 125.0 mg/kg/injection, schedule: Q01DX Z (ip), vehicle: carboxymethylcellulose (CMC) 94 % of control

CCOCCNC1=C(Cl)C(=O)c2ccccc2C1=O
inactive: [10] 97 % of control | dose: 200.0 mg/kg/injection, schedule: Q01DX001 (ip), vehicle: other 93 % of control | [11] 90 % of control

COC(C(=O)O)c1ccc(Br)cc1 (stereo unspecified)
inactive: [1] 95 % of control | dose: 150.0 mg/kg/injection, schedule: Q01DX001 (ip), vehicle: acetone 94 % of control

CC(C)(C)N=C=NC(c1ccccc1)(c1ccccc1)c1ccccc1
inactive: dose: 100.0 mg/kg/injection, schedule: Q04DX003 (ip), vehicle: saline 97 % of control | dose: 200.0 mg/kg/injection, schedule: Q04DX003 (ip), vehicle: saline 94 % of control | dose: 400.0 mg/kg/injection, schedule: Q04DX003 (ip), vehicle: saline 87 % of control

[Cl][Pd][Cl].[NH-]CCN1CC1
inactive: dose: 25.0 mg/kg/injection, schedule: Q04DX002 (ip), vehicle: saline + alcohol 113 % of control | dose: 50.0 mg/kg/injection, schedule: Q04DX002 (ip), vehicle: saline + alcohol 102 % of control | dose: 100.0 mg/kg/injection, schedule: Q04DX002 (ip), vehicle: saline + alcohol 117 % of control | dose: 100.0 mg/kg/injection, schedule: Q04DX002 (ip), vehicle: saline 116 % of control

From PubChem BioAssay AID248 (DTP/NCI, 2004)
